Among the data in patent US20090018163A1, “Substituted Heterocyclic Ethers and Their Use in CNS Disorders” (Bristol-Myers Squibb Company, priority 2007, published 2009) are IC50 values, retold here.

One assay addresses T1, hSERT (Homo sapiens, UniProt P31645).
T1 construct: expressed in transfected cells; host or cells: HEK-293 cells (crude membrane preparation)
Briefly: SERT radioligand binding assay. Here is the method:
(§1) NK-1 Binding assay. Crude membrane suspensions were prepared for the NK1 and SERT radioligand binding assays from U373 cells or recombinant HEK-293 cells expressing hSERT, respectively. Cells were harvested from T-175 flasks as follows. The medium is removed from the flasks and the cells rinsed with HBSS without Ca and without Mg. The cells are then incubated for 5-10 minutes in 10 mM Tris-Cl, pH 7.5, 5 mM EDTA before the cells are lifted with a combination of pipetting and scraping, as needed. To prepare membranes, the cell suspension is collected into centrifuge bottles and homogenized for 30 seconds with a Polytron homogenizer. The suspension is centrifuged for 30 min @ 32,000×g, 4° C., then the supernatant is decanted and the pellet resuspended and homogenized in 50 mM Tris-Cl, pH 7.5, 1 mM EDTA for 10 seconds. The suspension is then centrifuged again for 30 min @ 32,000×g, 4° C. The supernatant is decanted and the pellet resuspended in 50 mM Tris-Cl, pH 7.5, 1 mM EDTA and briefly homogenized. A Bradford assay (Bio-rad) is performed and the membrane preparation diluted to 2 mg/ml with 50 mM Tris-Cl, pH 7.5, 1 mM EDTA. Aliquots are prepared, and then frozen and stored at −80° C.
SERT radioligand binding assay. Compounds are dissolved in 100% DMSO at a concentration 100× the desired highest assay concentration, serially diluted 1:3 in 100% DMSO, and 0.4 ul/well of each solution is dispensed to a Nunc polypropylene, round bottom, 384 well plate. 100% inhibition is defined with 0.4 ul/well of 1 mM fluoxetine (Sigma F-132) dissolved in DMSO. 20 ul/well of a 2×HEK-hSERT membrane preparation (15 ug/ml in 50 mM Tris-Cl, pH 7.5, 120 mM NaCl, 5 mM KCl) and 20 ul/well of a 2× radioligand solution (520 pM [^125I]RTI-55 (Perkin-Elmer NEX-272) in 50 mM Tris-Cl, pH 7.5, 120 mM NaCl, 5 mM KCl) are added to each well and the reaction incubated for 1 hour at room temperature. The contents of the assay plate are then transferred to a Millipore MultiscreenHTS GF/B filter plate which has been pretreated with 0.5% PEI for at least one hour. The plate is vacuum filtered and washed with 7 washes of 100 ul/well of 50 mM Tris-Cl, pH 7.5, 120 mM NaCl, 5 mM KCl chilled to 4° C. The filtration and washing is completed in less than 90 s. The plates are air-dried overnight, 12 ul/well of MicroScint scintillation fluid added, and the plates counted in a Trilux.
(§2) Data analysis. The raw data are normalized to percent inhibition using control wells defining 0% (DMSO only) and 100% (selective inhibitor) inhibition which are run on each plate. Each plate is run in triplicate, and the concentration response curve thus generated is fit using the four-parameter dose response equation, Y=Bottom+(Top-Bottom)/(1+10̂((LogIC50−X)*HillSlope)) in order to determine the IC50 value for each compound. The radioligand concentration chosen for each assay corresponds to the Kd concentration determined through saturation binding analysis for each assay.

The target in the next assay is T2, NK-1 (Homo sapiens, UniProt P25103).
T2 construct: 30 ul/well of a 2×U373 membrane preparation; endogenous in cells; host or cells: U373 cells (crude membrane preparation)
T2 sequence (P25103 whole entry): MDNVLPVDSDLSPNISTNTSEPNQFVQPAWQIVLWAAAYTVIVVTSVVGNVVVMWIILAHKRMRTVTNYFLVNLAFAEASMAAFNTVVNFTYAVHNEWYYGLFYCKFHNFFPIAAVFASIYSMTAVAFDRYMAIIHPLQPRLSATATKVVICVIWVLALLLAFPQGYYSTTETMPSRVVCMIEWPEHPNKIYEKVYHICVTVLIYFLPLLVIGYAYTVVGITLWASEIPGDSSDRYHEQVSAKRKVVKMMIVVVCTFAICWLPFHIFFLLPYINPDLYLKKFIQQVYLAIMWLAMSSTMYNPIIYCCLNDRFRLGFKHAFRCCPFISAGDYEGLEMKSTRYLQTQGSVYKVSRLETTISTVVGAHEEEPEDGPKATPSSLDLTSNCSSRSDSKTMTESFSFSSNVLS
Briefly: NK1 radioligand binding assay. Conditions: U373 membrane preparation, [125I]Substance P. Here is the method:
as §1
NK1 radioligand binding assay. Compounds are dissolved in 100% DMSO at a concentration 100× the desired highest assay concentration, serially diluted 1:3 in 100% DMSO, and 0.6 ul/well of each solution is dispensed to a Nunc polypropylene, round bottom, 384 well plate. 100% inhibition is defined with 0.6 ul/well of 1 mM L-733,060 (Sigma L-137) dissolved in DMSO. 30 ul/well of a 2×U373 membrane preparation (267 ug/ml in 100 mM Tris-Cl, pH 7.5, 6 mM MgCl2, 0.2% (v/v) Sigma mammalian protease inhibitor cocktail (Sigma P-8340), and 4 ug/ml chymostatin, Sigma C-7268) and 30 ul/well of a 2× radioligand solution (400 pM [^125I]Substance P (Perkin Elmer NEX-190) in 1% (w/v) BSA (Sigma A-2153), 0.1 mg/ml bacitracin, Sigma B-0125) are added to the well and the reaction incubated for 1 hour at room temperature. The contents of the assay plate are then transferred to a Millipore MultiscreenHTS GF/B filter plate which has been pretreated with 0.5% PEI for at least one hour. The plate is vacuum filtered and washed with 7 washes of 100 ul/well of 20 mM Tris-Cl, pH 7.5, 0.5% (w/v) BSA chilled to 4° C. The filtration and washing is completed in less than 90 s. The plates are air-dried overnight, 12 ul/well of MicroScint scintillation fluid added, and the plates counted in a Trilux.
as §2

The mark [1] stands for this setting: HEK-hSERT membrane preparation, [125I]RTI-55, Table 1a, single enantiomers, read-out: SERT IC50.
[2] abbreviates: HEK-hSERT membrane preparation, [125I]RTI-55, Table 1, read-out: SERT IC50.

Where two headings read alike, the source gives them in different places.

T1 sequence (P31645 whole entry): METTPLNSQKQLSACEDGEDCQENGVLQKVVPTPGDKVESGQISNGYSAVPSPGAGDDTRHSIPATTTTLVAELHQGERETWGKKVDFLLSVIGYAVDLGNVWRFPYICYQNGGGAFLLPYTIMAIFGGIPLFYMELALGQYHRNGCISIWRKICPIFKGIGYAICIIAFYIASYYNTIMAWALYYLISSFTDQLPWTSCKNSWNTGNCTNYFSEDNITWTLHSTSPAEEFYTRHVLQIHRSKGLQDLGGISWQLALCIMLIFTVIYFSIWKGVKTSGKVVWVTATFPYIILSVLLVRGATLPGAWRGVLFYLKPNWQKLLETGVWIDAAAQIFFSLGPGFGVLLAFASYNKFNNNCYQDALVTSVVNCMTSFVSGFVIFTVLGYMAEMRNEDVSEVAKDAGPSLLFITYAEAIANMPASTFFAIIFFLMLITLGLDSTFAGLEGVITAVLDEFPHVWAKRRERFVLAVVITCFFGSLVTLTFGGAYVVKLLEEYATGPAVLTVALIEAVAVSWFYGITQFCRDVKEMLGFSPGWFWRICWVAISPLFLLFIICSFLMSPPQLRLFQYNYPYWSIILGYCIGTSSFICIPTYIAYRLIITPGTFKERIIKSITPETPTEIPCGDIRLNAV

Turning to `CC(OCC1(c2ccccc2)CCN(C)CC1)c1cc(C(F)(F)F)cc2cccnc12` (single isomer, unassigned) [Example 73], the IC50 on hSERT (setting [1]) lay within 0.01 to 100 nM; on NK-1 (Table 1a, single enantiomers), 0.01 to 100 nM.
As to `COc1ccc2cc(C)cc(C(C)OCC3(c4ccc(F)cc4)CCN(C)CC3)c2n1` (stereo not shown) [Example 50], the IC50 on hSERT (setting [2]) and on NK-1 (Table 1) was 0.01 to 100 nM in each case.
For `Cc1ccc2cc(COCC3(c4ccccc4)CCNCC3)ccc2n1` [Example 9], the IC50 on hSERT (setting [2]) is 0.01 to 100 nM; at NK-1 (Table 1) it was > 300 nM.
With `CC(OCC1(c2ccccc2)CCN(C)CC1)c1cc(C(F)(F)F)cc2cccnc12` (single isomer, unassigned) [Example 74], the IC50 on hSERT (setting [1]) is 0.01 to 100 nM; on NK-1 (Table 1a, single enantiomers), 0.01 to 100 nM.
For `CN1CCC(COCc2cc(Br)cc3cccnc23)(c2ccccc2)CC1` [Example 23], the IC50 at hSERT (setting [2]) and at NK-1 (Table 1) was 0.01 to 100 nM throughout.
Take `CNc1cc(COCC2(c3ccccc3)CCNCC2)nc2cccc(C(F)(F)F)c12` [Example 45, N-methyl-2-(((4-phenylpiperidin-4-yl)methoxy)methyl)-5-(trifluoromethyl)quinolin-4-amine]: the IC50 on hSERT (setting [2]) was 0.01 to 100 nM; on NK-1 (Table 1), > 300 nM.
As for `Nc1cc(COCC2(c3ccccc3)CCNCC2)nc2ccccc12` [Example 7], the IC50 on hSERT (setting [2]) was 0.01 to 100 nM; on NK-1 (Table 1), > 300 nM.
Take `Cc1cc(C(C)OCC2(c3ccc(F)cc3)CCN(C)CC2)c2ncccc2c1` (stereo not shown) [Example 40]: the IC50 on hSERT (setting [2]) and at NK-1 (Table 1) was 0.01 to 100 nM throughout.
As for `Cc1cc(COCC2(c3ccccc3)CCNCC2)nc2ccccc12` [Example 3], the figures for the IC50 on hSERT (setting [2]) and at NK-1 (Table 1) were 0.01 to 100 nM and 100 to 300 nM, respectively.
Turning to `CC(OCC1(c2ccc(F)cc2)CCN(C)CC1)c1cc(Br)cc2cccnc12` (single isomer, unassigned) [Example 78], the IC50 on hSERT is 0.01 to 100 nM; on NK-1 (Table 1a, single enantiomers), 100 to 300 nM.
Turning to `CN1CCC(COCc2ccc3ccccc3n2)(c2ccccc2)CC1` [Example 6], the values for the IC50 at hSERT (setting [2]) and on NK-1 (Table 1) were 0.01 to 100 nM and > 300 nM, respectively.
As to `Cc1cc(COCC2(c3ccc(F)cc3F)CCN(C)CC2)c2ncccc2c1` [Example 28], the IC50 at hSERT is 0.01 to 100 nM; on NK-1 (Table 1), 100 to 300 nM.
As for `N#Cc1cc(COCC2(c3ccccc3)CCNCC2)nc2ccccc12` [Example 14, 2-(((4-phenylpiperidin-4-yl)methoxy)methyl)quinoline-4-carbonitrile], the IC50 on hSERT (setting [2]) was 0.01 to 100 nM; on NK-1 (Table 1), > 300 nM.
Taken in the same sequence, the figures for `Cc1cc(C(C)OCC2(c3ccc(F)cc3)CCN(C)CC2)c2nc(F)ccc2c1` (stereo not shown) [Example 52] were 0.01 to 100 nM and 0.01 to 100 nM.
`COc1ccc2nc(COCC3(c4ccccc4)CCN(C)CC3)ccc2c1` [Example 12]: the IC50 at hSERT was 0.01 to 100 nM; on NK-1 (Table 1) it was > 300 nM.
Consider `Cc1ccc2c(C)cc(COCC3(c4ccccc4)CCNCC3)nc2c1` [Example 20], for which the IC50 at hSERT (setting [2]) is 0.01 to 100 nM; at NK-1 (Table 1) it was > 300 nM.
As to `CC(OCC1(c2ccc(F)cc2)CCN(C)CC1)c1cc(C(F)(F)F)cc2cccnc12` (stereo not shown) [Example 34], the IC50 on hSERT (setting [2]) and at NK-1 (Table 1) was 0.01 to 100 nM in each case.
For `COc1ccc2nc(COCC3(c4ccccc4)CCNCC3)ccc2c1` [Example 11], the IC50 on hSERT (setting [2]) is 0.01 to 100 nM; at NK-1 (Table 1), > 300 nM.
Regarding `Cc1cc(C(C)OCC2(c3ccc(F)cc3)CCN(C)CC2)c2[nH]c(=O)ccc2c1` (stereo not shown) [Example 53], the IC50 on hSERT (setting [2]) and at NK-1 (Table 1) was 0.01 to 100 nM throughout.
As for `Cc1cc(C(C)OCC2(c3ccc(F)cc3)CCNCC2)c2ncccc2c1` (stereo not shown) [Example 39], the IC50 at hSERT (setting [2]) and on NK-1 (Table 1) was 0.01 to 100 nM throughout.
In the case of `CC(OCC1(c2ccc(F)cc2)CCN(C)CC1)c1cc(Br)cc2cccnc12` (single isomer, unassigned) [Example 79], the IC50 at hSERT (setting [1]) lay in the range of 0.01 to 100 nM; at NK-1 (Table 1a, single enantiomers), 0.01 to 100 nM.
For the molecule `Brc1cc(COCC2(c3ccccc3)CCNCC2)nc2ccccc12` [Example 13, 4-bromo-2-(((4-phenylpiperidin-4-yl)methoxy)methyl)quinoline], the IC50 was in the range of 0.01 to 100 nM at hSERT (setting [2]) and 100 to 300 nM on NK-1 (Table 1).
For `CC(OCC1(c2ccccc2)CCN(C)CC1)c1cc(C(F)(F)F)cc2cccnc12` (stereo not shown) [Example 36], the IC50 on hSERT (setting [2]) and at NK-1 (Table 1) was 0.01 to 100 nM throughout.
In the case of `CC(OCC1(c2ccc(F)cc2)CCN(C)CC1)c1cc(C(F)(F)F)cc2cccnc12` (single isomer, unassigned) [Example 70], the IC50 was in the range of 0.01 to 100 nM at hSERT (setting [1]) and 0.01 to 100 nM on NK-1 (Table 1a, single enantiomers).
For `CC(OCC1(c2ccc(F)cc2)CCNCC1)c1cc(C(F)(F)F)cc2cccnc12` (stereo not shown) [Example 33], the IC50 at hSERT (setting [2]) and at NK-1 (Table 1) was 0.01 to 100 nM throughout.
In the case of `Cc1cc(C(C)OCC2(c3ccc(F)cc3)CCN(C)CC2)c2nc(N(C)C)ccc2c1` (stereo not shown) [Example 51], the IC50 at hSERT (setting [2]) was 100 to 300 nM; at NK-1 (Table 1), 0.01 to 100 nM.
With `CN1CCC(COCc2cc(-c3ccc(C#N)cc3)cc3cccnc23)(c2ccccc2)CC1` [Example 25], the IC50 on hSERT is 0.01 to 100 nM; at NK-1 (Table 1), > 300 nM.
`FC(F)(F)c1ccc2ccc(COCC3(c4ccccc4)CCNCC3)nc2c1` [Example 46, 2-(((4-phenylpiperidin-4-yl)methoxy)methyl)-7-(trifluoromethyl)quinoline]: the IC50 is 0.01 to 100 nM on hSERT (setting [2]) and > 300 nM at NK-1 (Table 1).
Turning to `Cc1cc(C(C)OCC2(c3ccccc3)CCN(C)CC2)c2ncccc2c1` (stereo not shown) [Example 42], the IC50 on hSERT (setting [2]) and at NK-1 (Table 1) was 0.01 to 100 nM each time.
On to `CC(OCC1(c2ccc(F)cc2)CCNCC1)c1cc(C(F)(F)F)cc2cccnc12` (single isomer, unassigned) [Example 67], for which the IC50 was 0.01 to 100 nM on hSERT (setting [1]) and > 300 nM on NK-1 (Table 1a, single enantiomers).
`Cc1cc(COCC2(c3ccccc3)CCN(C)CC2)c2ncccc2c1` [Example 26]: the IC50 at hSERT (setting [2]) and on NK-1 (Table 1) was 0.01 to 100 nM each time.
On to `Cc1cc(C(C)OCC2(c3ccc(F)cc3F)CCN(C)CC2)c2ncccc2c1` (stereo not shown) [Example 43], for which the IC50 at hSERT (setting [2]) and at NK-1 (Table 1) was 0.01 to 100 nM throughout.
With `FC(F)(F)c1ccnc2ccc(COCC3(c4ccccc4)CCNCC3)cc12` [Example 47, 6-(((4-phenylpiperidin-4-yl)methoxy)methyl)-4-(trifluoromethyl)quinoline], the IC50 is 0.01 to 100 nM on hSERT (setting [2]) and > 300 nM on NK-1 (Table 1).
Regarding `CC(OCC1(c2ccccc2)CCNCC1)c1cc(C(F)(F)F)cc2cccnc12` (stereo not shown) [Example 35], the IC50 at hSERT (setting [2]) and at NK-1 (Table 1) was 0.01 to 100 nM each time.
As to `Cc1cc(C(C)OCC2(c3ccc(F)cc3)CCN(C)CC2)c2nc(Cl)ccc2c1` (stereo not shown) [Example 49], the IC50 at hSERT (setting [2]) and on NK-1 (Table 1) was 0.01 to 100 nM in each case.

The term IC50 denotes the midpoint of a concentration-inhibition curve.
